2 molecules from US8945652B2, “High-potency sweetener for weight management and compositions sweetened therewith” (The Coca-Cola Company, priority 2005, dated 2015) can be followed below.

The nature of this test: Sensory evaluation of sweetness linger and taste by expert panel. The note with it: scale 0-5. Set-up: key: 0=no sweetness linger; 1=very slight sweetness linger; 2 slight sweetness linger; 3=moderate sweetness linger; 4=moderately high sweetness linger; 5=high sweetness linger. The procedure:
In a particular embodiment, a panel of assessors is used to measure the reduction of sweetness linger. Briefly described, a panel of assessors (generally 8 to 12 individuals) is trained to evaluate sweetness perception and measure sweetness at several time points from when the sample is initially taken into the mouth until 3 minutes after it has been expectorated. […] A decrease in score for a time point measured after the sample has cleared the mouth indicates there has been a reduction in sweetness perception.
The panel of assessors may be trained using procedures well known to those of ordinary skill in the art. In a particular embodiment, the panel of assessors may be trained using the Spectrum™ Descriptive Analysis Method (Meilgaard et al, Sensory Evaluation Techniques, 3rd edition, Chapter 11). Desirably, the focus of training should be the recognition of and the measure of the basic tastes; specifically, sweet. In order to ensure accuracy and reproducibility of results, each assessor should repeat the measure of the reduction of sweetness linger about three to about five times per sample, taking at least a five minute break between each repetition and/or sample and rinsing well with water to clear the mouth.
Generally, the method of measuring sweetness comprises taking a 10 mL sample into the mouth, holding the sample in the mouth for 5 seconds and gently swirling the sample in the mouth, rating the sweetness intensity perceived at 5 seconds, expectorating the sample (without swallowing following expectorating the sample), rinsing with one mouthful of water (e.g., vigorously moving water in mouth as if with mouth wash) and expectorating the rinse water, rating the sweetness intensity perceived immediately upon expectorating the rinse water, waiting 45 seconds and, while waiting those 45 seconds, identifying the time of maximum perceived sweetness intensity and rating the sweetness intensity at that time (moving the mouth normally and swallowing as needed), rating the sweetness intensity after another 10 seconds, rating the sweetness intensity after another 60 seconds (cumulative 120 seconds after rinse), and rating the sweetness intensity after still another 60 seconds (cumulative 180 seconds after rinse). Between samples take a 5 minute break, rinsing well with water to clear the mouth.
Sensory evaluation of the samples prepared in Example Set G was carried out under the following protocol, similar to that described hereinabove. In this test protocol, none of the samples were swallowed. […] Immediately upon sensing maximal sweetness, the sample was expectorated, the mouth was rinsed with water and the rate of sweetness decay (“Sweetness Linger”) was measured, where attention was focused on the sweetness 3-4 min after the water rinse. […]

[1] abbreviates: Example Set G, citric acid/potassium citrate composition equivalent to diet lemon-lime beverage, sweetness 3-4 min after water rinse.
Setting [2] is: Example Set H, carbon-treated water with phosphoric acid (75%), pH 2.4-2.5.

As for `OC[C@H]1O[C@@](CO)(O[C@H]2O[C@H](CO)[C@@H](O)[C@H](O)[C@H]2O)[C@@H](O)[C@@H]1O` [sugar, sucrose], the Sweetness linger reads like this: under setting [1], 0; under setting [2], 0.
On to rebaudioside A, for which the Sweetness linger by setting is: under setting [1], 5; under setting [2], 5.
